PubChem BioAssay (NCI)
Values joined by “and” are separate entries in the source; they are usually repeats but may differ in a detail not shown here. Equal values may be shown once.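 These data come from cells grown in 96-well plates and exposed to compound for 48 hours at five concentrations. GI50 is the concentration that inhibits growth by half. The concentration for full growth arrest is given as TGI.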

How the values were obtained:
Experiment in all cases: growth of human tumour cells (NCI), 48 h
UACC-257 melanoma = tested on: UACC-257 melanoma
CAKI-1 renal = tested on: CAKI-1 renal
U251 CNS = tested on: U251 CNS
OVCAR-8 ovarian = tested on: OVCAR-8 ovarian
SF-268 CNS = tested on: SF-268 CNS
NCI-H522 lung = tested on: NCI-H522 lung
OVCAR-4 ovarian = tested on: OVCAR-4 ovarian
HCT-116 colon = tested on: HCT-116 colon
OVCAR-3 ovarian = tested on: OVCAR-3 ovarian
SF-539 CNS = tested on: SF-539 CNS

Row | SMILES | GI50 (UACC-257 melanoma) | TGI (UACC-257 melanoma) | GI50 (CAKI-1 renal) | TGI (CAKI-1 renal) | GI50 (U251 CNS) | TGI (U251 CNS) | GI50 (OVCAR-8 ovarian) | TGI (OVCAR-8 ovarian) | GI50 (SF-268 CNS) | TGI (SF-268 CNS) | GI50 (NCI-H522 lung) | TGI (NCI-H522 lung) | GI50 (OVCAR-4 ovarian) | TGI (OVCAR-4 ovarian) | GI50 (HCT-116 colon) | TGI (HCT-116 colon) | GI50 (OVCAR-3 ovarian) | TGI (OVCAR-3 ovarian) | TGI (SF-539 CNS) | GI50 (SF-539 CNS)
1 | CCOC(=O)C#Cc1c(CC(=O)OCC)nnn1[C@H]1O[C@@H](CO)[C@@H]2OC(C)(C)O[C@@H]21 | 4.47 µM | 12.7 µM | 1.71 µM | 3.15 µM | 14 µM | 27.6 µM | 5.48 µM | 18.2 µM | 16.3 µM | 34.6 µM | 2.12 µM | 4.09 µM | 2.11 µM | 5.43 µM | 2.06 µM | 4.1 µM | 1.75 µM | 3.22 µM | – | –
2 | C/C=C/C=C\C1OC(O)([C@H](CC)C(=O)NC/C=C/C=C(\C)[C@H](OC)C(C)C2OC(\C=C/C=C/C=C(\C)C(=O)c3c(O)ccn(C)c3=O)[C@H](O)[C@@H]2O)C(O)C(O)C1(C)C (stereo partly drawn) | – | > 100 µM | – | > 100 µM | – | > 100 µM | – | > 100 µM | – | > 100 µM | – | > 100 µM | – | > 100 µM | – | > 100 µM | – | > 100 µM | > 100 µM | –
3 | COC(=O)C(CC(=O)Nc1ccc(Cl)c(Cl)c1)C(=O)C(=O)NC1C2CC3CC(C2)CC1C3 (stereo not drawn) | – | > 100 µM | – | > 100 µM | – | > 100 µM | – | > 100 µM | – | > 100 µM | – | > 100 µM | – | > 100 µM | – | > 100 µM | – | > 100 µM | > 100 µM | –
4 | N#CC(C#N)=C1SCC(=O)CS1 | – | > 100 µM | – | > 100 µM | – | > 100 µM | – | > 100 µM | – | > 100 µM | – | > 100 µM | – | > 100 µM | – | > 100 µM | – | > 100 µM | > 100 µM | –
5 | C[C@@H]1C[C@@]2(O[C@@H]2C)C(=O)O[C@@H]2CCN3CC=C(COC(=O)[C@]1(C)O)[C@H]23 | – | > 100 µM | – | > 100 µM | – | > 100 µM | – | > 100 µM | – | > 100 µM | – | > 100 µM | – | > 100 µM | – | > 100 µM | – | > 100 µM | > 100 µM | –
6 | Clc1nc(Cl)c(Cc2ccccc2)c(Cl)n1 | – | – | – | – | – | 33.8 µM | – | 19 µM | – | 57.7 µM | – | 3.04 µM | – | 29.4 µM | – | 4.73 µM | – | 9.16 µM | 20 µM | –
7 | N#Cc1nc2cc(F)c(F)cc2nc1-c1ccc(Cl)cc1 | 22.1 µM | > 58.3 µM | 15.1 µM | 38.5 µM | 10.4 µM | 25 µM | 2.09 µM | 4.76 µM | 8.07 µM | 30.2 µM | 13.5 µM | > 48.2 µM | > 62 µM | > 100 µM | 10.7 µM | 29.2 µM | 2.24 µM | 8.28 µM | > 100 µM | > 60.6 µM
8 | Cc1ccc(S(=O)(=O)Nc2nc3ccccc3nc2Nc2ccc3nsnc3c2)cc1 | 3.56 µM and 2.87 µM | 27.7 µM and > 100 µM | 3.36 µM and 2.33 µM | > 100 µM | 3.26 µM and 3.65 µM | > 100 µM | 4.3 µM and 4.19 µM | > 100 µM | 3.93 µM and 4.35 µM | > 100 µM | 3.59 µM and 1.5 µM | 31.1 µM and 4.47 µM | 3.13 µM | > 100 µM | 3.52 µM | 15.4 µM and > 100 µM | 3.23 µM and 3.65 µM | 14.8 µM and > 100 µM | 61.3 µM and > 100 µM | 4.9 µM and 5.13 µM
9 | O=C(N/C(=C\c1ccc(Oc2ccc(Cl)c(Cl)c2)cc1)c1nc2ccccc2[nH]1)c1ccccc1 | – | – | – | 47.9 µM | – | 27.4 µM | – | 28.6 µM | – | 37.1 µM | – | 35.5 µM | – | 54.2 µM | – | – | – | 41 µM | 32.7 µM | –
10 | O=C(/C=C1/NC(=O)CS1)Nc1ccccc1 | – | – | – | > 100 µM | – | > 100 µM | – | > 100 µM | – | > 100 µM | – | > 100 µM | – | > 100 µM | – | > 100 µM | – | > 100 µM | > 100 µM | –
11 | COc1cc([C@@H]2OC(=O)C3C2C(=O)O[C@H]3c2cc(OC)c(OC)c(OC)c2)cc(OC)c1OC (stereo partly drawn) | – | > 100 µM | – | – | – | > 100 µM | – | > 100 µM | – | > 100 µM | – | > 100 µM | – | > 100 µM | – | > 100 µM | – | > 100 µM | > 100 µM | –
12 | Cc1cccc2c1C(=O)OC2(C)c1cccc2ccccc12 (stereo not drawn) | – | > 100 µM | – | > 100 µM | – | 73.8 µM | – | > 100 µM | – | > 100 µM | – | 40.4 µM | – | 67.4 µM | – | – | – | 78.8 µM | – | –
13 | COc1cc(-c2oc3c(OC)c(O)c(OC)c(O)c3c(=O)c2OC)ccc1O | – | > 100 µM | – | 90.1 µM | – | > 100 µM | – | > 100 µM | – | – | – | 66.9 µM | – | > 100 µM | – | > 100 µM | – | 67.8 µM | > 100 µM | –
14 | O=C1/C(=C/c2ccc(Cl)cc2)COc2ccc(O)c(O)c21 | 1.65 µM | 3.88 µM | 1.07 µM | 2.28 µM | 0.731 µM | 2.06 µM | 1.11 µM | 12.8 µM | 1.44 µM | 3.06 µM | 0.182 µM | 0.426 µM | 1.33 µM | 2.71 µM | – | – | 0.404 µM | 1.48 µM | 1.87 µM | 0.44 µM
15 | O=C(NCP(=O)(O)O)c1cccnc1 | – | > 100 µM | – | > 100 µM | – | > 100 µM | – | > 100 µM | – | – | – | – | – | > 100 µM | – | > 100 µM | – | > 100 µM | > 100 µM | –
16 | CC(C)CCc1c(Cl)nc(Cl)nc1Cl | – | 34 µM | – | – | – | 24.4 µM | – | – | – | > 100 µM | – | 9.89 µM | – | 44.2 µM | – | 9.3 µM | – | 24.3 µM | 56.5 µM | –
17 | COc1cc(C(=O)CC2(O)C(=O)Nc3c(Cl)cc(Cl)cc32)ccc1O (stereo not drawn) | – | > 100 µM | – | > 100 µM | – | > 100 µM | – | > 100 µM | – | > 100 µM | – | > 100 µM | – | > 100 µM | – | – | – | > 100 µM | – | –
18 | COc1ccc2c(c1)CC1c3c(cc4c(c3-2)OCO4)CCN1C (stereo not drawn) | – | 57.5 µM | – | 60.2 µM | – | > 100 µM | – | 70.4 µM | – | – | – | 38.7 µM | – | 52.2 µM | – | 70.6 µM | – | 88.4 µM | > 100 µM | –
19 | CC1=C(C(=O)Nc2ccc(F)c(Cl)c2)C(c2cccc(Oc3ccccc3)c2)NC(=O)N1 (stereo not drawn) | 18 µM | 34.9 µM | 18.6 µM | 38.8 µM | 13.4 µM | 26.2 µM | 18 µM | 43.7 µM | 15.6 µM | 40.3 µM | 14.9 µM | 29.4 µM | – | – | 12.2 µM | 24.6 µM | 20.7 µM | 57.3 µM | 28.3 µM | 14.6 µM
